Legend:
C. coskatii PS02 [1] = assay: Antibiotic susceptibility, growth at 100 μg/mL antibiotic; type: cell-based, Clostridium coskatii (PS02); details: Acetogen C3 media; for Antibiotic susceptibility pattern (+ indicates growth): C. coskatii PS02, antibiotic 100 μg/ml, 37% CO, 35% H2, 22% CO2, balance N2, OD600; for Resistance to antibiotic (in words): Clostridium coskatii (PS02), 100 μg/mL
Description: (§1) The antibiotic susceptibility of Clostridium coskatii (PS02) was evaluated in Acetogen C3 media against 17 antibiotics at a concentration of 100 μg/mL (Table G). Clostridium coskatii (PS02) was resistant to erythromycin, nalidixic acid, spectinomycin, colistin, penicillin, streptomycin, and chloramphenicol. Three antibiotics differentiated C. coskatii from three ethanologenic Clostridia: C. ljungdahlii PETC, C. ragsgalei, and C. autoethanogenum. These differentiating antibiotics included, erythromycin, carbenicillin, and chloramphenicol (Table J).
(§2) Antibiotic susceptibility was based upon growth in media containing 100 μg/mL of each antibiotic. The atmosphere was 37% CO, 35% H2, 22% CO2 with a balance gas of N2. A positive growth response was recorded for an OD600 exceeding 0.2 AU.

C. ljungdahlii PETC [2] = assay: as above; type: cell-based, Clostridium ljungdahlii PETC; details: for Antibiotic susceptibility pattern (+ indicates growth): C. ljungdahlii PETC, antibiotic 100 μg/ml, 37% CO, 35% H2, 22% CO2, balance N2, OD600; for Resistance to antibiotic (in words): Clostridium ljungdahlii PETC, 100 μg/mL
Description: as §1, §2

[3] = at 37° C.; cited from earlier work
[4] = system: Clostridium coskatii (PS02)
C. coskatii PS02 [5] = assay: Growth on various substrates (carbon substrate utilization); type: cell-based; details: Clostridium coskatii (PS02); absence of yeast extract
C. autoethangenum [6] = assay: as above; type: cell-based, Clostridium autoethanogenum; details: C. autoethangenum; 1 g/L carbon source; N2:CO2 (80%:20%); OD600
Description: (§3) Growth was measured spectrophotometrically at 600 nm (Spectronic 20D; Milton Roy). Carbon substrate utilization was based upon growth after consecutive transfers in media containing 1 g/L of each carbon source. For carbon substrates, screening was performed under an atmosphere of N2: CO2 (80%:20%). A positive growth response was recorded for an OD600 exceeding 0.2 AU. For citrate, additional ^13C-labeled isotope experiments were conducted to determine the nature of products by analysis of final 0.2 μm-filtered product samples by carbon NMR using a Bruker UltraShield Avance 400 MHz nuclear magnetic resonance spectrometer.

C. ljungdahlii PETC [7] = assay: as above; type: cell-based, Clostridium ljungdahlii PETC; details: 1 g/L carbon source, N2:CO2 (80%:20%), OD600
Description: as §3

C. coskatii PS02 [8] = assay: as above; type: cell-based, Clostridium coskatii (PS02); details: for Growth on substrate: C. coskatii PS02, 1 g/L carbon source, N2:CO2 (80%:20%), OD600
Description: as §3

C. ragsdalei [9] = assay: as above; type: cell-based, Clostridium ragsdalei; details: 1 g/L carbon source, N2:CO2 (80%:20%), OD600
Description: as §3

C. autoethangenum [10] = assay: Antibiotic susceptibility, growth at 100 μg/mL antibiotic; type: cell-based, Clostridium autoethanogenum; details: antibiotic 100 μg/ml, 37% CO, 35% H2, 22% CO2, balance N2, OD600
Description: as §1, §2

C. ragsdalei [11] = assay: as above; type: cell-based, Clostridium ragsdalei; details: antibiotic 100 μg/ml, 37% CO, 35% H2, 22% CO2, balance N2, OD600
Description: as §1, §2

[12] = system: Clostridium coskatii (PS02); remark: listed apart in the source
Description: In general, fermentation will be allowed to proceed until a desired level of product such as ethanol is produced in the culture media. Typically, this level of ethanol is in the range of at least 15 grams/liter of culture medium to 50 grams/liter, with a level of at least 30 grams/liter being preferable. […] In addition, continuous culture techniques exist which allow the continual replenishment of fresh culture medium with concurrent removal of used medium, including any liquid products therein (i.e. the chemostat mode).

Compound | Antibiotic susceptibility pattern (+ indicates growth) (C. coskatii PS02 [1]) | Resistance to antibiotic (in words) (C. coskatii PS02 [1]) | Antibiotic susceptibility pattern (+ indicates growth) (C. ljungdahlii PETC [2]) | Antibiotic susceptibility pattern (+ indicates growth) (C. autoethangenum [10]) | Antibiotic susceptibility pattern (+ indicates growth) (C. ragsdalei [11]) | further results
O=C(N[C@H](CO)[C@H](O)c1ccc([N+](=O)[O-])cc1)C(Cl)Cl [Chloramphenicol] | + (+ indicates growth) | resistant |  |  |  | 
CC[C@H]1OC(=O)[C@H](C)[C@@H](O[C@H]2C[C@@](C)(OC)[C@@H](O)[C@H](C)O2)[C@H](C)[C@@H](O[C@@H]2O[C@H](C)C[C@H](N(C)C)[C@H]2O)[C@](C)(O)C[C@@H](C)C(=O)[C@H](C)[C@@H](O)[C@]1(C)O [Erythromycin] | + (+ indicates growth) | resistant | + (+ indicates growth) |  |  | Resistance to antibiotic (in words) (C. ljungdahlii PETC [2]): Resistance
O=S(=O)(O)CCN1CCOCC1 [MES, 2-(N-morpholino)ethanesulfonic acid] |  |  |  |  |  | pKa [3]: 5.97
O=S(=O)(O)CCN1CCN(CCS(=O)(=O)O)CC1 [PIPES, piperazine-N,N′-bis(2-ethanesulfonic acid] |  |  |  |  |  | pKa [3]: 6.66
Tris(hydroxymethyl)aminomethane |  |  |  |  |  | pKa [3]: 7.72
CC(=O)O [acetic acid] |  |  |  |  |  | Concentration of undissociated acetic acid at which cell growth was significantly inhibited [4]: exceeded 50 mM
[C-]#[O+] [CO] |  |  |  |  |  | Chemolithoautotrophic growth (in words) (C. coskatii PS02 [5]): occurred; Growth on substrate (C. autoethangenum [6]): + (A positive growth response was recorded for an OD600 exceeding 0.2 AU); Growth on substrate (C. ljungdahlii PETC [7]): + (A positive growth response was recorded for an OD600 exceeding 0.2 AU); Growth on substrate (C. coskatii PS02 [8]): + (A positive growth response was recorded for an OD600 exceeding 0.2 AU); Growth on substrate (C. ragsdalei [9]): + (A positive growth response was recorded for an OD600 exceeding 0.2 AU)
CN[C@@H]1[C@H](O)[C@H](NC)[C@H]2O[C@@]3(O)C(=O)C[C@@H](C)O[C@H]3O[C@@H]2[C@H]1O [Spectinomycin] | + (+ indicates growth) | resistant | + (+ indicates growth) | + (+ indicates growth) | + (+ indicates growth) | 
CC1(C)S[C@@H]2[C@H](NC(=O)C(C(=O)O)c3ccccc3)C(=O)N2[C@H]1C(=O)O (stereo partly drawn) [Carbenicillin] | + (+ indicates growth) | Resistance | + (+ indicates growth) |  |  | Resistance to antibiotic (in words) (C. ljungdahlii PETC [2]): Resistance
[H]/N=C(/N)N[C@H]1[C@H](O)[C@@H](O)[C@H](O[C@@H]2O[C@@H](C)[C@](O)(C=O)[C@H]2O[C@@H]2O[C@@H](CO)[C@H](O)[C@@H](O)[C@@H]2NC)[C@@H](N/C(N)=N\[H])[C@@H]1O [Streptomycin] | + (+ indicates growth) | resistant | + (+ indicates growth) | + (+ indicates growth) | + (+ indicates growth) | 
Colistin | + (+ indicates growth) | resistant | + (+ indicates growth) | + (+ indicates growth) | + (+ indicates growth) | 
CCO [Ethanol] |  |  |  |  |  | Growth on substrate (C. autoethangenum [6]): + (A positive growth response was recorded for an OD600 exceeding 0.2 AU); Growth on substrate (C. ljungdahlii PETC [7]): + (A positive growth response was recorded for an OD600 exceeding 0.2 AU); Growth on substrate (C. coskatii PS02 [8]): + (A positive growth response was recorded for an OD600 exceeding 0.2 AU); Ethanol concentration in which the organism remains viable and will grow [12]: at least 60 grams/liter; Growth on substrate (C. ragsdalei [9]): + (A positive growth response was recorded for an OD600 exceeding 0.2 AU)
NC(=O)CC[C@H](N)C(=O)O [Glutamine] |  |  |  |  |  | Growth on substrate (C. autoethangenum [6]): + (A positive growth response was recorded for an OD600 exceeding 0.2 AU); Growth on substrate (C. ljungdahlii PETC [7]): + (A positive growth response was recorded for an OD600 exceeding 0.2 AU); Growth on substrate (C. coskatii PS02 [8]): + (A positive growth response was recorded for an OD600 exceeding 0.2 AU); Chemoorganotrophic growth on substrate (in words) (C. coskatii PS02 [8]; Clostridium coskatii (PS02)): growth was observed; Growth on substrate (C. ragsdalei [9]): + (A positive growth response was recorded for an OD600 exceeding 0.2 AU)
Penicillin | + (+ indicates growth) | resistant | + (+ indicates growth) | + (+ indicates growth) | + (+ indicates growth) | 
CCn1cc(C(=O)O)c(=O)c2ccc(C)nc21 [Nalidixic acid] | + (+ indicates growth) | resistant | + (+ indicates growth) | + (+ indicates growth) | + (+ indicates growth) | 
